Reference: PubChem BioAssay (NCI)
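Assay format: 96-well plates, 48-hour exposure. Abbreviation: GI50, concentration required for 50% inhibition of growth. The concentration for full growth arrest is given as TGI.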

Legend:
Experiment in all cases: DTP human tumour cell line panel, 48 h
HS 578T breast = system: HS 578T breast
MOLT-4 leukemia = system: MOLT-4 leukemia
SK-MEL-5 melanoma = system: SK-MEL-5 melanoma
SN12C renal = system: SN12C renal
HCT-15 colon = system: HCT-15 colon
A549 NSCLC = system: A549 NSCLC
A498 renal = system: A498 renal
DU-145 prostate = system: DU-145 prostate
T-47D breast = system: T-47D breast
EKVX NSCLC = system: EKVX NSCLC
COLO 205 colon = system: COLO 205 colon
HCT-116 colon = system: HCT-116 colon
KM12 colon = system: KM12 colon
HCC-2998 colon = system: HCC-2998 colon
786-0 renal = system: 786-0 renal
OVCAR-3 ovarian = system: OVCAR-3 ovarian
NCI-H23 lung = system: NCI-H23 lung
NCI-H522 lung = system: NCI-H522 lung
NCI-H226 lung = system: NCI-H226 lung
SF-295 CNS = system: SF-295 CNS
SK-MEL-28 melanoma = system: SK-MEL-28 melanoma
PC-3 prostate = system: PC-3 prostate
SR leukemia = system: SR leukemia
OVCAR-4 ovarian = system: OVCAR-4 ovarian
OVCAR-8 ovarian = system: OVCAR-8 ovarian
IGROV1 ovarian = system: IGROV1 ovarian
UO-31 renal = system: UO-31 renal

`COc1ccc(C(=O)c2cc(OC)c(OC)c(OC)c2OC)cc1O` was tested, and the GI50 (HS 578T breast) was 3.41 µM, the TGI (HS 578T breast) was > 100 µM and the GI50 (MOLT-4 leukemia) was 4.56 µM. For the same compound, the TGI (MOLT-4 leukemia) was > 100 µM, the GI50 (SK-MEL-5 melanoma) was 2.93 µM and the TGI (SK-MEL-5 melanoma) was > 100 µM. For the same compound, the GI50 (SN12C renal) was 6.64 µM, the TGI (SN12C renal) was > 100 µM and the GI50 (HCT-15 colon) was 3.48 µM. For the same compound, the TGI (HCT-15 colon) was > 100 µM, the GI50 (A549 NSCLC) was 5.4 µM and the TGI (A549 NSCLC) was > 100 µM. For the same compound, the GI50 (A498 renal) was 6.31 µM, the TGI (A498 renal) was > 100 µM and the GI50 (DU-145 prostate) was 4.64 µM. For the same compound, the TGI (DU-145 prostate) was > 100 µM, the GI50 (T-47D breast) was 4.64 µM and the TGI (T-47D breast) was > 100 µM. For the same compound, the GI50 (EKVX NSCLC) was 28.6 µM, the TGI (EKVX NSCLC) was > 100 µM and the GI50 (COLO 205 colon) was 8.27 µM. The TGI (COLO 205 colon) was 34.3 µM, the GI50 (HCT-116 colon) was 3.98 µM and the TGI (HCT-116 colon) was > 100 µM. For the same compound, the GI50 (KM12 colon) was 2.91 µM, the TGI (KM12 colon) was > 100 µM and the GI50 (HCC-2998 colon) was 6.15 µM. For the same compound, the TGI (HCC-2998 colon) was 65.1 µM, the GI50 (786-0 renal) was 4.35 µM and the TGI (786-0 renal) was > 100 µM. The GI50 (OVCAR-3 ovarian) was 2.83 µM, the TGI (OVCAR-3 ovarian) was 7.65 µM and the GI50 (NCI-H23 lung) was 3.71 µM. The TGI (NCI-H23 lung) was > 100 µM, the GI50 (NCI-H522 lung) was 2.37 µM and the TGI (NCI-H522 lung) was 7.44 µM. The GI50 (NCI-H226 lung) was 20.5 µM, the TGI (NCI-H226 lung) was > 100 µM and the GI50 (SF-295 CNS) was 1.94 µM. The TGI (SF-295 CNS) was 5.18 µM, the GI50 (SK-MEL-28 melanoma) was 6.42 µM and the TGI (SK-MEL-28 melanoma) was > 100 µM. The GI50 (PC-3 prostate) was 4.06 µM, the TGI (PC-3 prostate) was > 100 µM and the GI50 (SR leukemia) was 0.61 µM. The TGI (SR leukemia) was > 100 µM, the GI50 (OVCAR-4 ovarian) was 6.14 µM and the TGI (OVCAR-4 ovarian) was > 100 µM. For the same compound, the GI50 (OVCAR-8 ovarian) was 4.06 µM, the TGI (OVCAR-8 ovarian) was > 100 µM and the GI50 (IGROV1 ovarian) was 7.5 µM. For the same compound, the TGI (IGROV1 ovarian) was > 100 µM and the GI50 (UO-31 renal) was 5.02 µM.
